Reference: US20250082624A1, “METHODS OF TREATING COGNITIVE IMPAIRMENT” (NeuroTherapia, Inc., priority 2023, published 2025)
Several values for one entry are separate records, joined by “and”; a condition that tells them apart may be missing. Identical values can stand only once. Entries after “also recorded” stand apart in the source; their conditions may differ. Like-named read-outs stand apart in the source and are kept apart here.

Assay: Phase 1b MAD plasma pharmacokinetics, non-compartmental analysis
Type: in vivo, human
Description: Methods: All study procedures were approved by the IRB, and informed consent was obtained. Three cohorts of volunteers 45-80 years of age with well-controlled comorbidities (NOAD) and one cohort of AD patients diagnosed with cognitive impairment consistent with prodromal AD per International Working Group criteria or mild AD per National Institute on Aging—Alzheimer's Association criteria (n=6 active, 2 placebo per cohort) were enrolled. Participants were admitted to the study site for the duration of the dosing and returned 7-12 days after the last dose for a safety visit. Participants received NTRX-07 (10, 30, or 90 mg) or a placebo in a double-blinded randomization orally once daily for seven days. Subjects were assessed for changes in vital signs, including maneuvers to induce lightheadedness, electrocardiograms, 24-hour electroencephalograms (EEG), and safety laboratory studies. The second cohort returned and received a single repeat dose after a standard high-fat meal. The AD cohort also underwent cognitive testing and had blood samples for biomarkers drawn. Subjects had PK sampling done after the first and final dose of the study drug. An independent safety review committee conducted a blinded safety review of adverse events and plasma levels between each cohort.
All subjects had PK sampling done after the first and final dose of the study drug.
(§1) Raw bioanalytical data were received from Nuvisan following analysis of plasma samples from each of four cohorts. PK parameters were calculated by noncompartmental analysis using standard equations. Specifically, area under the plasma concentration versus time curve (AUC) was calculated using the trapezoid rule. Maximal plasma concentration (Cmax) and time of maximal plasma concentration (Tmax) were taken directly from the data. Clearance divided by bioavailability (Cl/F) was calculated as the dose divided by the AUC. Apparent volume of distribution over bioavailability (Vd/F) was calculated as dose divided by Cmax.
With oral administration of the dose every 24 hours for 7 days, blood samples were taken over a 24-hour interval on Days 1 and 7 and before and after dosing on Day 3.
as §1, with “on Oct. 27, 2022. […]” for “following analysis of plasma samples from each of four cohorts. PK parameters were calculated by noncompartmental analysis using standard equations.”
as §1, with “on Nov. 24, 2022. […]” for “following analysis of plasma samples from each of four cohorts. PK parameters were calculated by noncompartmental analysis using standard equations.”
as §1, with “on Dec. 19, 2022. […]” for “following analysis of plasma samples from each of four cohorts. PK parameters were calculated by noncompartmental analysis using standard equations.”
Raw bioanalytical data were received from Nuvisan on Jun. 30, 2023. […] Specifically, area under the plasma concentration versus time curve (AUC) was calculated using the trapezoid rule. Maximal plasma concentration (Cmax) and time of maximal plasma concentration (Tmax) were taken directly from the data. […]

[1] = Table 17: Cohort D (AD), 90 mg QD oral, Day 7, individual subjects
[2] = Table 19 (interim): Cohort A, 40 mg SDD (10 mg NTRX-07) QD oral, Day 1, individual subjects
[3] = Table 20 (interim): Cohort A, 40 mg SDD (10 mg NTRX-07) QD oral, Day 7, individual subjects
[4] = Table 24 (interim): Cohort B, 120 mg SDD (30 mg NTRX-07) QD oral, Day 1, individual subjects
[5] = Table 25 (interim): Cohort B, 120 mg SDD (30 mg NTRX-07) QD oral, Day 7, individual subjects
[6] = Table 29 (interim): Cohort C, 360 mg SDD (90 mg NTRX-07) QD oral, Day 1, individual subjects
[7] = Table 30 (interim): Cohort C, 360 mg SDD (90 mg NTRX-07) QD oral, Day 7, individual subjects
[8] = Table 34 (interim): Cohort D (AD), 360 mg SDD (90 mg NTRX-07) QD oral, Day 1, individual subjects
[9] = Table 35 (interim): Cohort D (AD), 360 mg SDD (90 mg NTRX-07) QD oral, Day 7, individual subjects

CC1(Cc2ccccc2)COc2cc(C(=O)N3CCCCC3)ccc21 (centres unmarked) [NTRX-07, 3-benzyl-3-methyl-2,3-dihydrobenzofuran-6-carboxylic acid-piperidine amide]
Cmax [1]: 250 ng/mL and 262 ng/mL and 246 ng/mL and 176 ng/mL and 221 ng/mL | Tmax [1]: 1.5 h (3×) and 1 h | Cl/F (Table 17: Cohort D (AD), 90 mg QD oral, Day 7, mean ± S.D.): 117 ± 28 L/h | AUC24 h [2]: 35.7 ng·h/mL and 73.8 ng·h/mL and 151.0 ng·h/mL and 46.3 ng·h/mL and 154.2 ng·h/mL and 96.8 ng·h/mL | Cl/F [2]: 1120 L/h and 542 L/h and 265 L/h and 864 L/h and 259 L/h and 413 L/h | Cmax [2]: 24.2 ng/mL and 45.0 ng/mL and 36.7 ng/mL and 18.2 ng/mL and 52.6 ng/mL and 37.0 ng/mL | Tmax [2]: 1.0 h | Cl/F (Table 19 (interim): Cohort A, 40 mg SDD (10 mg NTRX-07) QD oral, Day 1, mean ± S.D.): 577 ± 347 L/h | AUC24 h [3]: 49.5 ng·h/mL and 92.8 ng·h/mL and 223.8 ng·h/mL and 41.5 ng·h/mL and 91.9 ng·h/mL and 67.0 ng·h/mL | Cl/F [3]: 808 L/h and 431 L/h and 179 L/h and 963 L/h and 435 L/h and 597 L/h | Cmax [3]: 29.6 ng/mL and 39.4 ng/mL and 63.6 ng/mL and 19.6 ng/mL and 46.7 ng/mL and 27.1 ng/mL | Tmax [3]: 1.0 h | Cl/F (Table 20 (interim): Cohort A, 40 mg SDD (10 mg NTRX-07) QD oral, Day 7, mean ± S.D.): 569 ± 284 L/h | AUC24 h [4]: 152.3 ng·h/mL and 462.4 ng·h/mL and 716.3 ng·h/mL and 369.3 ng·h/mL and 229.9 ng·h/mL and 97.4 ng·h/mL and 236.4 ng·h/mL | Cl/F [4]: 788 L/h and 260 L/h and 168 L/h and 325 L/h and 522 L/h and 1231 L/h and 508 L/h | Cmax [4]: 60.8 ng/mL and 93.9 ng/mL and 209 ng/mL and 127 ng/mL and 153 ng/mL and 47.9 ng/mL and 70.6 ng/mL | Tmax [4]: 1 h (3×) and 2 h | Cl/F (Table 24 (interim): Cohort B, 120 mg SDD (30 mg NTRX-07) QD oral, Day 1, mean ± S.D.): 549 ± 401 L/h | AUC24 h [5]: 118.0 ng·h/mL and 582.3 ng·h/mL and 286.5 ng·h/mL and 241.7 ng·h/mL and 67.1 ng·h/mL and 200.4 ng·h/mL | Cl/F [5]: 1017 L/h and 206 L/h and 419 L/h | Cmax [5]: 92.9 ng/mL and 236 ng/mL and 127 ng/mL | Tmax [5]: 1 h | AUC24 h [6]: 1629 ng·h/mL and 857 ng·h/mL and 925 ng·h/mL and 657 ng·h/mL and 1730 ng·h/mL and 1949 ng·h/mL | Tmax [6]: 1.5 h (2×) and 8 h and 1 h and 3 h | AUC24 h [7]: 783 ng·h/mL and 604 ng·h/mL and 354 ng·h/mL and 516 ng·h/mL and 876 ng·h/mL and 1349 ng·h/mL | Tmax [7]: 2 h and 1.5 h and 3 h | AUC24 h [8]: 1004 ng·h/mL and 1255 ng·h/mL and 2727 ng·h/mL and 1349 ng·h/mL and 1580 ng·h/mL and 1422 ng·h/mL | Tmax [8]: 2 h and 1 h (2×) and 1.5 h | AUC24 h [9]: 1854 ng·h/mL and 1659 ng·h/mL and 1603 ng·h/mL and 1328 ng·h/mL and 1130 ng·h/mL | Tmax [9]: 1.5 h (3×) and 1 h | PK / plasma levels AD vs Non-AD participants (high dose (90 mg)): similar; also recorded: comparable | Cmax (human, plasma, oral, 90 mg, high dose (90 mg), AD participants, read-out: Cmax): 477 ng/mL | AUC(0-t) (human, plasma, oral, 90 mg, high dose (90 mg), AD participants, read-out: average of AUC0-24 h): 1560 ng·h/mL | Cmax (human, plasma, oral, 90 mg, high dose (90 mg), Non-AD participants, read-out: Cmax): 439 ng/mL | AUC(0-t) (human, plasma, oral, 90 mg, high dose (90 mg), Non-AD participants, read-out: average of AUC0-24 h): 1290 ng·h/mL | AUC(0-t) (human, plasma, po, 10 mg, Cohort A healthy, 10 mg QD oral, Day 1, mean ± SD, read-out: Average of AUC24 h): 78.8 ± 43.7 ng·h/mL | Cmax (human, plasma, po, 10 mg, Cohort A healthy, 10 mg QD oral, Day 1, mean ± SD, read-out: Average of Cmax): 35.6 ± 12.8 ng/mL | Tmax (human, plasma, po, 10 mg, Cohort A healthy, 10 mg QD oral, Day 1, mean ± SD, read-out: Average of Tmax): 0.7 ± 0.3 h | Vd/F (human, plasma, po, 10 mg, Cohort A healthy, 10 mg QD oral, Day 1, mean ± SD, read-out: Average of Vd/F): 1280 ± 544 L | AUC(0-t) (human, plasma, po, 10 mg, Cohort A healthy, 10 mg QD oral, Day 7, mean ± SD, read-out: Average of AUC24 h): 90.4 ± 67.9 ng·h/mL | Cmax (human, plasma, po, 10 mg, Cohort A healthy, 10 mg QD oral, Day 7, mean ± SD, read-out: Average of Cmax): 37.7 ± 15.9 ng/mL | Tmax (human, plasma, po, 10 mg, Cohort A healthy, 10 mg QD oral, Day 7, mean ± SD, read-out: Average of Tmax): 0.8 ± 0.3 h | Vd/F (human, plasma, po, 10 mg, Cohort A healthy, 10 mg QD oral, Day 7, mean ± SD, read-out: Average of Vd/F): 307 ± 126 L | Tmax (human, plasma, po, 10 mg, Table 9: Cohort A, 10 mg QD oral, Day 1, individual subjects, read-out: Tmax): 0.5 h | AUC(0-t) (human, plasma, po, 10 mg, Table 9: Cohort A, 10 mg QD oral, Day 1, mean ± S.D., read-out: AUClast): 78.8 ± 43.7 ng·h/mL | Cmax (human, plasma, po, 10 mg, Table 9: Cohort A, 10 mg QD oral, Day 1, mean ± S.D., read-out: Cmax): 35.6 ± 12.8 ng/mL | Tmax (human, plasma, po, 10 mg, Table 9: Cohort A, 10 mg QD oral, Day 1, mean ± S.D., read-out: Tmax): 0.7 ± 0.3 h | Vd/F (human, plasma, po, 10 mg, Table 9: Cohort A, 10 mg QD oral, Day 1, mean ± S.D., read-out: Vd/F): 1280 ± 544 L | Tmax (human, plasma, po, 10 mg, Table 10: Cohort A, 10 mg QD oral, Day 7, individual subjects, read-out: Tmax): 0.5 h | AUC over 24 h (AUC0-24) (human, plasma, po, 10 mg, Table 10: Cohort A, 10 mg QD oral, Day 7, mean ± S.D.): 90.4 ± 67.9 ng·h/mL
